Patent US12696902B2, “Pesticidal pyrazole and triazole derivatives” (priority 2019, dated 2026)

How the values were obtained:
Format in all cases: in vivo
[1] = tested on: Yellow Fever Mosquito (Aedes aegypti); experiment: whole plant or invertebrate; details: 48 h, freshly hatched A. aegypti larvae, larval mortality visually assessed after 2 days, read-out: mortality in comparison with untreated controls
Procedure: For evaluating control of yellow fever mosquito (Aedes aegypti) the test unit consisted of 96-well-microtiter plates containing 200 μl of tap water per well and 5-15 freshly hatched A. aegypti larvae.
The active compounds or mixtures were formulated using a solution containing 75% (v/v) water and 25% (v/v) DMSO. Different concentrations of formulated compounds or mixtures were sprayed onto the insect diet at 2.5 μl, using a custom built micro atomizer, at two replications. For experimental mixtures in these tests identical volumes of both mixing partners at the desired concentrations respectively, were mixed together.
After application, microtiter plates were incubated at 28±1° C., 80±15% RH for 2 days. Larval mortality was then visually assessed.

[2] = tested on: Southern Armyworm (Spodoptera eridania), 2nd Instar Larvae; experiment: Action on southern armyworm 2nd instar larvae on sprayed lima bean plants; details: 96 h, 4 days after treatment, read-out: mortality in comparison with untreated controls
Procedure: The active compounds were formulated by a Tecan liquid handler in 100% cyclohexanone as a 10,000 ppm solution supplied in tubes. The 10,000 ppm solution was serially diluted in 100% cyclohexanone to make interim solutions. These served as stock solutions for which final dilutions were made by the Tecan in 50% acetone:50% water (v/v) into 10 or 20 ml glass vials. A nonionic surfactant (Kinetic®) was included in the solution at a volume of 0.01% (v/v). The vials were then inserted into an automated electrostatic sprayer equipped with an atomizing nozzle for application to plants/insects.
Lima bean plants (variety Sieva) were grown 2 plants to a pot and selected for treatment at the 1st true leaf stage. Test solutions were sprayed onto the foliage by an automated electrostatic plant sprayer equipped with an atomizing spray nozzle. The plants were dried in the sprayer fume hood and then removed from the sprayer. Each pot was placed into perforated plastic bags with a zip closure. About 10 to 11 armyworm larvae were placed into the bag and the bags zipped closed. Test plants were maintained in a growth room at about 25° C. and about 20-40% relative humidity for 4 days, avoiding direct exposure to fluorescent light (24 hour photoperiod) to prevent trapping of heat inside the bags. Mortality and reduced feeding were assessed 4 days after treatment, compared to untreated control plants.

[3] = tested on: Tobacco Budworm (Heliothis virescens); experiment: Action on tobacco budworm, egg and larval mortality on insect diet in microtiter plates; details: 120 h, H. virescens eggs on insect diet, egg and larval mortality after 5 days, read-out: mortality in comparison with untreated controls
Procedure: For evaluating control of tobacco budworm (Heliothis virescens) the test unit consisted of 96-well-microtiter plates containing an insect diet and 15-25 H. virescens eggs.
The compounds were formulated using a solution containing 75% v/v water and 25% v/v DMSO. Different concentrations of formulated compounds were sprayed onto the insect diet at 10 μl, using a custom built micro atomizer, at two replications.
After application, microtiter plates were incubated at about 28+1° C. and about 80+5% relative humidity for 5 days. Egg and larval mortality were then visually assessed.

[4] = tested on: Diamond Back Moth (Plutella xylostella); experiment: Action on diamond back moth, cabbage leaf dip; details: foliar, 3rd instar larvae on dipped cabbage leaves, 72 hours after treatment, read-out: mortality in comparison with untreated controls
Procedure: The active compound is dissolved at the desired concentration in a mixture of 1:1 (v/v) distilled water:acetone. Surfactant (Kinetic® HV) is added at a rate of 0.01% (v/v). The test solution is prepared at the day of use.
Leaves of cabbage were dipped in test solution and air-dried. Treated leaves were placed in petri dishes lined with moist filter paper and inoculated with ten 3rd instar larvae. Mortality was recorded 72 hours after treatment. Feeding damages were also recorded using a scale of 0-100%.

[5] = tested on: Boll Weevil (Anthonomus grandis); experiment: Action on boll weevil, egg and larval mortality on insect diet in microtiter plates; details: 120 h, A. grandis eggs on insect diet, egg and larval mortality after 5 days, read-out: mortality in comparison with untreated controls
Procedure: For evaluating control of boll weevil (Anthonomus grandis) the test unit consisted of 96-well-microtiter plates containing an insect diet and 5-10 A. grandis eggs.
The compounds were formulated using a solution containing 75% (v/v) water and 25% (v/v) DMSO. Different concentrations of formulated compounds were sprayed onto the insect diet at 5 μl, using a custom built micro atomizer, at two replications.
After application, microtiter plates were incubated at about 25+1° C. and about 75+5% relative humidity for 5 days. Egg and larval mortality were then visually assessed.

[6] = tested on: Orchid Thrips (Dichromothrips corbetti); experiment: Action on orchid thrips, floral-immersion technique; details: adult thrips, 72 hours after treatment, read-out: mortality in comparison with untreated controls
Procedure: Dichromothrips corbetti adults used for bioassay were obtained from a colony maintained continuously under laboratory conditions. For testing purposes, the test compound is diluted in a 1:1 mixture of acetone:water (vol:vol), plus Kinetic® HV at a rate of 0.01% v/v.
Thrips potency of each compound was evaluated by using a floral-immersion technique. All petals of individual, intact orchid flowers were dipped into treatment solution and allowed to drying Petri dishes. Treated petals were placed into individual re-sealable plastic along with about 20 adult thrips. All test arenas were held under continuous light and a temperature of about 28° C. for duration of the assay. After 3 days, the numbers of live thrips were counted on each petal. The percent mortality was recorded 72 hours after treatment.

Row | Compound | mortality at 800 ppm [1] [%] | mortality at 300 ppm [2] [%] | mortality at 800 ppm [3] [%] | mortality at 500 ppm [4] [%] | mortality at 800 ppm [5] [%] | mortality at 500 ppm [6] [%]
1 | Cc1cc(/C=N/N2C(=O)CS/C2=N\c2ccccc2C(C)C)ccc1-n1cc(NC(=O)c2ccc(OC(F)(F)F)cc2)c(C)n1 [Compound C-11, N-[1-[4-[(E)-[(2Z)-2-(2-isopropylphenyl)imino-4-oxo-thiazolidin-3-yl]iminomethyl]-2-methyl-phenyl]-3-methyl-pyrazol-4-yl]-4-(trifluoromethoxy)benzamide] | ≥ 50 | ≥ 75 | ≥ 75 | ≥ 75 | ≥ 75 | –
2 | Cc1nn(-c2ccc(/C=N/NC(=S)Nc3ccccc3C(C)C)cc2)cc1NC(=O)c1ccc2c(c1)OC(F)(F)O2 [Compound C-16, 2,2-difluoro-N-[1-[4-[(E)-[(2-isopropylphenyl)carbamothioylhydrazono]methyl]phenyl]-3-methyl-pyrazol-4-yl]-1,3-benzodioxole-5-carboxamide] | ≥ 50 | ≥ 75 | ≥ 75 | ≥ 75 | ≥ 75 | ≥ 75
3 | Cc1nn(-c2ccc(/C=N/N=C3\SCC(=O)N3c3ccccc3C(C)C)cc2)cc1NC(=O)c1ccc2c(c1)OC(F)(F)O2 [Compound C-17, 2,2-difluoro-N-[1-[4-[(E)-[(Z)-[3-(2-isopropylphenyl)-4-oxo-thiazolidin-2-ylidene]hydrazono]methyl]phenyl]-3-methyl-pyrazol-4-yl]-1,3-benzodioxole-5-carboxamide] | ≥ 50 | ≥ 75 | ≥ 75 | ≥ 75 | ≥ 75 | –
4 | Cc1nn(-c2ccc(/C=N/NC(=S)Nc3ccccc3C(C)C)cc2)cc1C(=N)Nc1ccc(OC(F)(F)F)cc1 [Compound C-52, 1-(2-isopropylphenyl)-3-[(E)-[4-[3-methyl-4-[N-[4-(trifluoromethoxy)phenyl]carbamimidoyl]pyrazol-1-yl]phenyl]methyleneamino] thiourea] | ≥ 50 | ≥ 75 | ≥ 75 | ≥ 75 | ≥ 75 | ≥ 75
5 | Cc1nn(-c2ccc(/C=N/N3C(=O)CS/C3=N\c3ccccc3C(C)C)cc2)cc1C(=N)Nc1ccc(OC(F)(F)F)cc1 [Compound C-53, 1-[4-[(E)-[(2Z)-2-(2-isopropylphenyl)imino-4-oxo-thiazolidin-3-yl]iminomethyl]phenyl]-3-methyl-N-[4-(trifluoromethoxy)phenyl]pyrazole-4-carboxamidine] | ≥ 50 | ≥ 75 | ≥ 75 | ≥ 75 | ≥ 75 | –
